{"source": "patent US5658501A", "about": "“Substituted naphthopyrans” (Transitions Optical, Inc., priority 1995, dated 1997)", "key": {"[1]": {"assay": "lambda max of the activated (colored) form in the visible spectrum", "assay_type": "physicochemical", "conditions": "activated form in a diethylene glycol bis(allyl carbonate) composition", "protocol": "(§1) The Δ OD/Min, which represents the sensitivity of the photochromic compound's response to UV light, was measured over the first five (5) seconds of UV exposure, then expressed on a per minute basis. The saturation optical density (OD) was taken under identical conditions as the Δ OD/Min, except UV exposure was continued for 20 minutes for the examples in Table 1. The lambda max reported in Table 1 is the wavelength in the visible spectrum at which the maximum absorption of the activated (colored) form of the photochromic compound in a diethylene glycol bis(allyl carbonate) composition occurs. The Bleach Rate (T 1/2) is the time interval in seconds for the absorbance of the activated form of the naphthopyran in the test squares to reach one half the highest absorbance at room temperature (75° F., 23.9° C.) after removal of the source of activating light."}, "[2]": {"assay": "photochromic response rates on an optical bench (test squares)", "assay_type": "physicochemical", "conditions": "for ΔOD @ SATURATION: UV exposure continued for 20 minutes, same test squares; for ΔOD @ SATURATION / ΔOD/MIN SENSITIVITY: 75° F. (23.9° C.); for ΔOD/MIN SENSITIVITY: measured over first five seconds of UV exposure, expressed per minute, 1.5 x 10^-3 molal in BPA 2EO DMA / poly(ethyleneglycol) 600 dimethacrylate polymer; for Bleach Rate (T1/2): time for absorbance of activated form to reach one half the highest absorbance, room temperature (75° F., 23.9° C.), after removal of activating light", "protocol": "Testing was done with the photochromic naphthopyrans of the Examples incorporated into polymeric samples by the following method. The quantity of naphthopyran calculated to yield a 1.5 time 10^-3 molal solution was added to a flask containing 50 grams of a monomer blend of 4 parts ethoxylated bisphenol A dimethacrylate (BPA 2EO DMA), 1 part poly(ethyleneglycol) 600 dimethacrylate, and 0.033 weight percent 2,2'-azobis (2-methyl propionitrile) (AIBN). The naphthopyran was dissolved into the monomer blend by stirring and gentle heating, if necessary. After a clear solution was obtained, it was poured into a flat sheet mold having the interior dimensions of 2.2 mm×6 inches (15.24 cm)×6 inches (15.24 cm). The mold was sealed and placed in a horizontal air flow, programmable oven set to increase the temperature from 40° C. to 95° C. over a 5 hour interval, hold the temperature at 95° C. for 3 hours and then lower it to 60° C. for at least 2 hours before the end of the curing cycle. After the mold was opened, the polymer sheet was cut using a diamond blade saw into 2 inch (5.1 centimeters) test squares.\nThe photochromic test squares prepared in Part A were tested for photochromic response rates on an optical bench. […] The bench was fitted with a 150 watt Xenon arc lamp, a remote controlled shutter, a copper sulfate bath acting as a heat sink for the arc lamp, a Schott WG-320 nm cut-off filter which removes short wavelength radiation; neutral density filter(s) and a sample holder in which the square to be tested was inserted. A collimated beam of light from a tungsten lamp was passed through the square at a small angle normal to the square. After passing through the square, the light from the tungsten lamp was directed through a photopic filter attached to a detector. The photopic filter passes wavelengths such that the detector mimics the response of the human eye. The output signals from the detector(s) were processed by a radiometer.\nChange in optical density (ΔOD) was determined by inserting a test square in the bleached state into the sample holder, adjusting the transmittance scale to 100%, opening the shutter from the Xenon lamp to provide ultraviolet radiation to change the test square from the bleached state to an activated (i.e., darkened) state, measuring the transmittance in the activated state; and calculating the change in optical density according to the formula Δ OD=log(100/%Ta) where %Ta is the percent transmittance in the activated state and the logarithm is to the base 10.\nas §1, with “occurs.” for “occurs. The Bleach Rate (T 1/2) is the time interval in seconds for the absorbance of the activated form of the naphthopyran in the test squares to reach one half the highest absorbance at room temperature (75° F., 23.9° C.) after removal of the source of activating light.”"}}, "data": [{"molecule": "COc1ccc(C2(c3ccc(OC)cc3)C=Cc3c(C(O)(c4ccccc4)c4ccccc4)c(OC)c4ccccc4c3O2)cc1", "note": "[Example 11, 2,2-bis(4-methoxyphenyl)-5-diphenylmethylol-6-methoxy-[2H]-naphtho[1,2-b]pyran]", "values": [{"measurement": "LAMBDA MAX (VISIBLE)", "setting": "[1]", "value": 467, "unit": "nm"}, {"measurement": "ΔOD @ SATURATION", "setting": "[2]", "value": 0.19}, {"measurement": "ΔOD/MIN SENSITIVITY", "setting": "[2]", "value": "0.10 ΔOD/MIN"}, {"measurement": "Bleach Rate (T1/2)", "setting": "[2]", "value": 1.42, "unit": "min"}]}, {"molecule": "COc1ccc(C2(c3ccc(OC)cc3)C=Cc3c(-c4cccn4C)c(OC(C)=O)c4ccccc4c3O2)cc1", "note": "[Example 1, 2,2-bis(4-methoxyphenyl)-5-(N-methylpyrrol-2-yl)-6-acetoxy-2H-naphtho[1,2-b]pyran]", "values": [{"measurement": "LAMBDA MAX (VISIBLE)", "setting": "[1]", "value": 513, "unit": "nm"}, {"measurement": "ΔOD @ SATURATION", "setting": "[2]", "value": 0.25}, {"measurement": "ΔOD/MIN SENSITIVITY", "setting": "[2]", "value": "0.16 ΔOD/MIN"}, {"measurement": "Bleach Rate (T1/2)", "setting": "[2]", "value": 1.23, "unit": "min"}]}, {"molecule": "COc1ccc(C2(c3ccc(OC)cc3)C=Cc3c(C)c(OC(C)=O)c4ccccc4c3O2)cc1", "note": "[Example 6, 2,2-bis(4-methoxyphenyl)-5-methyl-6-acetoxy-2H-naphtho[1,2-b]pyran]", "values": [{"measurement": "LAMBDA MAX (VISIBLE)", "setting": "[1]", "value": 506, "unit": "nm"}, {"measurement": "ΔOD @ SATURATION", "setting": "[2]", "value": 0.37}, {"measurement": "ΔOD/MIN SENSITIVITY", "setting": "[2]", "value": "0.14 ΔOD/MIN"}, {"measurement": "Bleach Rate (T1/2)", "setting": "[2]", "value": 2, "unit": "min"}]}, {"molecule": "CC(=O)Oc1c(Sc2ccccc2)c2c(c3ccccc13)OC1(C=C2)C2CC3CC(C2)CC1C3", "note": "(centres unmarked) [Example 8, 2,2'-spiroadamantylene-5-phenylthio-6-acetoxy-2H-naphtho[1,2-b]pyran]", "values": [{"measurement": "LAMBDA MAX (VISIBLE)", "setting": "[1]", "value": 459, "unit": "nm"}, {"measurement": "ΔOD @ SATURATION", "setting": "[2]", "value": 0.04}, {"measurement": "ΔOD/MIN SENSITIVITY", "setting": "[2]", "value": "0.10 ΔOD/MIN"}, {"measurement": "Bleach Rate (T1/2)", "setting": "[2]", "value": 1.13, "unit": "min"}]}, {"molecule": "COc1c(C)c2c(c3ccccc13)OC1(C=C2)C2CC3CC(C2)CC1C3", "note": "(centres unmarked) [Example 9, 2,2'-spiroadamantylene-5-methyl-6-methoxy-2H-naphtho[1,2-b]pyran]", "values": [{"measurement": "LAMBDA MAX (VISIBLE)", "setting": "[1]", "value": 462, "unit": "nm"}, {"measurement": "ΔOD @ SATURATION", "setting": "[2]", "value": 0.17}, {"measurement": "ΔOD/MIN SENSITIVITY", "setting": "[2]", "value": "0.12 ΔOD/MIN"}, {"measurement": "Bleach Rate (T1/2)", "setting": "[2]", "value": 2.55, "unit": "min"}]}, {"molecule": "Oc1c(Sc2ccccc2)c2c(c3ccccc13)OC1(C=C2)C2CC3CC(C2)CC1C3", "note": "(centres unmarked) [Example 7, 2,2'-spiroadamantylene-5-phenylthio-6-hydroxy-2H-naphtho[1,2-b]pyran]", "values": [{"measurement": "LAMBDA MAX (VISIBLE)", "setting": "[1]", "value": 462, "unit": "nm"}, {"measurement": "ΔOD @ SATURATION", "setting": "[2]", "value": 0.47}, {"measurement": "ΔOD/MIN SENSITIVITY", "setting": "[2]", "value": "0.15 ΔOD/MIN"}, {"measurement": "Bleach Rate (T1/2)", "setting": "[2]", "value": 3.08, "unit": "min"}]}, {"molecule": "COc1ccc(C2(c3ccc(OC)cc3)C=Cc3c(C(O)(c4ccccc4)c4ccccc4)c(O)c4ccccc4c3O2)cc1", "note": "[Example 10, 2,2-bis (4-methoxyphenyl)-5-diphenylmethylol-6-hydroxy-2H-naphtho[1,2-b]pyran]", "values": [{"measurement": "LAMBDA MAX (VISIBLE)", "setting": "[1]", "value": 482, "unit": "nm"}, {"measurement": "ΔOD @ SATURATION", "setting": "[2]", "value": 0.32}, {"measurement": "ΔOD/MIN SENSITIVITY", "setting": "[2]", "value": "0.05 ΔOD/MIN"}, {"measurement": "Bleach Rate (T1/2)", "setting": "[2]", "value": "> 13.3", "unit": "min"}]}, {"molecule": "COc1ccc(C2(c3ccc(OC)cc3)C=Cc3c(Cl)c(OC(C)=O)c4ccccc4c3O2)cc1", "note": "[Example 5, 2,2-bis(4-methoxyphenyl)-5-chloro-6-acetoxy-2H-naphtho[1,2-b]pyran]", "values": [{"measurement": "LAMBDA MAX (VISIBLE)", "setting": "[1]", "value": 462, "unit": "nm"}, {"measurement": "ΔOD @ SATURATION", "setting": "[2]", "value": 0.07}, {"measurement": "ΔOD/MIN SENSITIVITY", "setting": "[2]", "value": "0.08 ΔOD/MIN"}, {"measurement": "Bleach Rate (T1/2)", "setting": "[2]", "value": 0.9, "unit": "min"}]}, {"molecule": "COc1ccc(C2(c3ccc(OC)cc3)C=Cc3c(-c4ccc(OC)cc4OC)c(OC(C)=O)c4ccccc4c3O2)cc1", "note": "[Example 2, 2,2-bis(4-methoxyphenyl)-5-(2,4-dimethoxyphenyl)-6-acetoxy-2H-naphtho[1,2-b]pyran]", "values": [{"measurement": "LAMBDA MAX (VISIBLE)", "setting": "[1]", "value": 511, "unit": "nm"}, {"measurement": "ΔOD @ SATURATION", "setting": "[2]", "value": 0.55}, {"measurement": "ΔOD/MIN SENSITIVITY", "setting": "[2]", "value": "0.15 ΔOD/MIN"}, {"measurement": "Bleach Rate (T1/2)", "setting": "[2]", "value": 4.13, "unit": "min"}]}, {"molecule": "COc1ccc(C2(c3ccc(OC)cc3)C=Cc3c(Sc4ccccc4)c(OC(C)=O)c4ccccc4c3O2)cc1", "note": "[Example 4, 2,2-bis(4-methoxyphenyl)-5-phenylthio-6-acetoxy-2H-naphtho[1,2-b]pyran]", "values": [{"measurement": "LAMBDA MAX (VISIBLE)", "setting": "[1]", "value": 516, "unit": "nm"}, {"measurement": "ΔOD @ SATURATION", "setting": "[2]", "value": 0.23}, {"measurement": "ΔOD/MIN SENSITIVITY", "setting": "[2]", "value": "0.22 ΔOD/MIN"}, {"measurement": "Bleach Rate (T1/2)", "setting": "[2]", "value": 0.7, "unit": "min"}]}, {"molecule": "COc1ccc(C2(c3ccc(OC)cc3)C=Cc3c(Sc4ccccc4)c(O)c4ccccc4c3O2)cc1", "note": "[Example 3, 2,2-bis(4-methoxyphenyl)-5-phenylthio-6-hydroxy-2H-naphtho[1,2-b]pyran]", "values": [{"measurement": "LAMBDA MAX (VISIBLE)", "setting": "[1]", "value": 516, "unit": "nm"}, {"measurement": "ΔOD @ SATURATION", "setting": "[2]", "value": 1.76}, {"measurement": "ΔOD/MIN SENSITIVITY", "setting": "[2]", "value": "0.34 ΔOD/MIN"}, {"measurement": "Bleach Rate (T1/2)", "setting": "[2]", "value": "> 10", "unit": "min"}]}]}
